Experimental data: publication PMC3056319 (Journal of medicinal chemistry, 2011)
Like-named read-outs stand apart in the source and are kept apart here.

Columns and labels:
[1] = system: Recombinant Zaire Ebola virus (EBOV-eGFP); test: microbe, parasite or virus in culture; format: cell-based; settings: read-out: EBOV inhibition IC50
[2] = system: RAW 264.7 (rat macrophage) cell line; format: cell-based
[3] = system: P. falciparum Indochina W2 clone; test: microbe, parasite or virus in culture; format: cell-based
Vero76 cells = settings: African green monkey
recombinant BoNT/A LC [4] = biological target: T1, recombinant BoNT/A LC (Clostridium botulinum, UniProt P0DPI0); format: biochemical, Closteridium botulinum
P. berghei (P Line) = settings: mouse
[5] = system: P. falciparum multidrug resistant C235 strain (Thailand); test: microbe, parasite or virus in culture; format: cell-based
[6] = system: P. berghei (ANKA strain) sporozoites; design: species or system ICR mice (Mus musculus); settings: mouse, in vivo
[7] = system: P. falciparum African D6 clone; test: microbe, parasite or virus in culture; format: cell-based; settings: Plasmodium falciparum, D6, read-out: Antimalarial activity IC50, D6
recombinant BoNT/A LC [8] = biological target: T1, recombinant BoNT/A LC; settings: cited from earlier work
EBOV = settings: cited from earlier work

T1 sequence (P0DPI0 2-448 limits assumed): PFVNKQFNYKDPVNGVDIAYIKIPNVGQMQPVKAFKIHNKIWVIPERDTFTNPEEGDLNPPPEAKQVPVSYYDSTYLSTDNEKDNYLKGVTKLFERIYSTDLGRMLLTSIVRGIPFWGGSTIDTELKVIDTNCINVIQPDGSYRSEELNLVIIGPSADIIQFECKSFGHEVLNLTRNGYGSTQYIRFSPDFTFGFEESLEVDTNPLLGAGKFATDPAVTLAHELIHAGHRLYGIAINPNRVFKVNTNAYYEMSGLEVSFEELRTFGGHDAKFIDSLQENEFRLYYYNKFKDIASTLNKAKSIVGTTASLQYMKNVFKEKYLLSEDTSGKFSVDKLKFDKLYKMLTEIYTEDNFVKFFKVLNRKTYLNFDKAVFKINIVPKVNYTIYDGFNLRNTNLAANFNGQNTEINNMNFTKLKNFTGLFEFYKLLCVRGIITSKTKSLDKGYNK

Structure (SMILES) | Selectivity index (IC50) D6 [2] | Selectivity index (IC50) W2 [2] | Selectivity index (IC90) C235 [2] | Selectivity index (IC90) D6 [2] | Selectivity index (IC90) W2 [2] | Resistance index (RI) W2/D6 [3] | Toxicity at 20 µM (Vero76 cells) [%] | cell toxicities in dose-response studies (Vero76 cells) [%] | also measured
Cc1cc(NCCCN2CCOCC2)c2ccc3c(ccc4c(NCCCN5CCOCC5)cc(C)nc43)c2n1.Cl [Compound 16, 3,9-dimethyl-N,N'-bis(3-morpholin-4-ylpropyl)quino[8,7-h]quinoline-1,7-diamine tetrahydrochloride] | 1430.40; 1302.12 | 3740.50; 1728.68 | 929.32; 635.31 | 1430.40; 1302.12 | 3740.50; 1728.68 | 0.38/1.54 | <20 | < 25 | IC50 ([1]; Zaire ebolavirus, Vero 76, 48 h): ~5000 nM; IC50 [1]: 2500 to 5000 nM; Selectivity index (IC50) C235 [2]: 929.32; 635.31
Cc1cc(NCCCN)c2ccc3c(ccc4c(NCCCN)cc(C)nc43)c2n1.Cl [Compound 7, N,N'-bis(3-aminopropyl)-3,9-dimethylquino[8,7-h]quinoline-1,7-diamine tetrahydrochloride] |  |  |  |  |  |  |  |  | type of inhibition kinetics (recombinant BoNT/A LC [4]): competitive inhibitors
CCN(CC)CCNc1cc(C)nc2c1ccc1c2ccc2c(NCCN(CC)CC)cc(C)nc21.Cl [Compound 11, N,N'-bis[2-(diethylamino)ethyl]-3,9-dimethylquino[8,7-h]quinoline-1,7-diamine tetrahydrochloride] | 1555.41; 1189.46 | 2686.21; 1058.99 | 281.66; 2827.70 | 1555.41; 1189.46 | 2686.21; 1058.99 | 0.57/0.55 | <20 | < 25 | IC50 [1]: 5000 to 10000 nM; toxicity in vivo (P. berghei (P Line); ICR, po): >60; >60; no toxicity in vivo; in vivo clinical toxicity (P. berghei (P Line)): No evidence of in vivo clinical toxicity; day of succumbing to infection (post-parasite inoculation), non-cured mice (P. berghei (P Line); in vivo): 13 to 21 days; mice cured (negative blood smear on day 31 post-infection) (P. berghei (P Line); in vivo): cured one mouse out of five tested; Resistance index (RI) C235/D6 [5]: 0.57/0.55; delay of parasite patency relative to control mice [6]: 1 to 2 days; delayed patency [6]: 1 days; causal prophylactic protection ([6]; po): does not provide prophylactic protection
Cc1cc(NCCCN2CCCCC2)c2ccc3c(ccc4c(NCCCN5CCCCC5)cc(C)nc43)c2n1.Cl [Compound 14, 3,9-dimethyl-N,N'-bis(3-piperidin-1-ylpropyl)quino[8,7-h]quinoline-1,7-diamine tetrahydrochloride] |  |  |  |  |  |  | <20 | < 25 | 
Cc1cc(NCCN)c2ccc3c(ccc4c(NCCN)cc(C)nc43)c2n1.Cl [Compound 8, N,N'-bis(2-aminoethyl)-3,9-dimethylquino[8,7-h]quinoline-1,7-diamine tetrahydrochloride] |  |  |  |  |  |  |  |  | type of inhibition kinetics (recombinant BoNT/A LC [4]): competitive inhibitors
CCN(CC)CCCC(C)Nc1ccnc2cc(Cl)ccc12 (stereo not drawn) [CQ, chloroquine, reference compound] |  |  |  |  |  |  |  |  | IC50 ([3]; Plasmodium falciparum, W2, read-out: Antimalarial activity IC50, W2): 456 nM; IC50 [7]: 12.3 nM; IC50 ([5]; Plasmodium falciparum, read-out: Antimalarial activity IC50, C235): 139 nM; BoNT/A LC inhibition (recombinant BoNT/A LC [8]): weakly inhibit the BoNT/A LC
Cc1cc(NCCN2CCOCC2)c2ccc3c(ccc4c(NCCN5CCOCC5)cc(C)nc43)c2n1.Cl [Compound 17, 3,9-dimethyl-N,N'-bis(2-morpholin-4-ylethyl)quino[8,7-h]quinoline-1,7-diamine tetrahydrochloride] | 1715.68; 2374.36 | 1662.42; 2601.48 | 1033.94; 1815.35 | 1715.68; 2374.36 | 1662.42; 2601.48 | 1.03/1.66 |  |  | Selectivity index (IC50) C235 [2]: 1033.94; 1815.35; Resistance index (RI) C235/D6 [5]: 1.03/1.66
Cc1cc(NCCCN(C)C)c2ccc3c(ccc4c(NCCCN(C)C)cc(C)nc43)c2n1.Cl [Compound 9, N,N'-bis[3-(dimethylamino)propyl]-3,9-dimethylquino[8,7-h]quinoline-1,7-diamine tetrahydrochloride] |  |  |  |  |  |  |  |  | anti-EBOV efficacy in vivo (EBOV): possesses anti-EBOV efficacy in vivo with no toxicity
